Earlier results in patent US20090247603A1, “Stabilized pharmaceutical compositions comprising an HMG-CoA reductase inhibitor” (Orbus Pharma, Inc., priority 2005, published 2009).

Conditions: following oral administration

CC(C)c1c(C(=O)Nc2ccccc2)c(-c2ccccc2)c(-c2ccc(F)cc2)n1CC[C@@H](O)C[C@@H](O)CC(=O)[O-].CC(C)c1c(C(=O)Nc2ccccc2)c(-c2ccccc2)c(-c2ccc(F)cc2)n1CC[C@@H](O)C[C@@H](O)CC(=O)[O-].[Ca+2] (relative stereo) [atorvastatin calcium, (R—(R*,R*))-2-(4-fluorophenyl)-[beta],[delta]-dihydroxy-5-(1-methylethyl)-3-phenyl-4((phenylamino)carbonyl)-1H-pyrole-1-heptanoic acid hemi calcium salt]
dose recovered in urine: Less than 2%
